Source: the OPERA property sets (Mansouri et al. 2018)

Settings: not given

SMILES	boiling point	log10 vapour pressure (mmHg)	melting point	ready biodegradability	log10 Henry constant (atm·m³/mol)	log10 Koa	log10 biodegradation half-life (days)	log10 Koc (L/kg)
CCCCCCCCCCCCCl	260 °C	-2.2	-9.3 °C	readily biodegradable	–	–	–	–
CCCCC(C(N)=O)n1nc2ccccc2n1 (stereo unspecified)	–	–	102 °C	–	–	–	–	–
C1CCCCC1	80.7 °C	1.99	6.6 °C	not readily biodegradable	-0.824	2.74	1.7	–
N#Cc1nc(C#N)nc(C#N)n1	262 °C	–	119 °C	–	–	–	–	–
Cc1ccc(Cl)c(OCC(O)CNC(C)(C)C)c1 (stereo unspecified)	–	–	221 °C	–	–	–	–	–
C=Cc1ccc(OC)cc1	205 °C	–	–	–	–	–	–	–
COc1ccc(C(C)=O)c(O)c1	–	–	52.5 °C	–	–	–	–	–
O=C(O)c1c(Cl)cccc1Cl	–	–	144 °C	not readily biodegradable	–	–	–	–
CCOc1ccc(Cl)cc1Cl	237 °C	–	32 °C	–	–	–	–	–
CC(C)NCC1CCc2cc(CO)c([N+](=O)[O-])cc2N1 (stereo unspecified)	–	–	148 °C	–	–	–	–	–
C#CC(C)(CC)OC(=O)c1ccccc1C(=O)O (stereo unspecified)	–	–	97 °C	–	–	–	–	–
C[Si]1(C)O[Si](C)(C)O[Si](C)(C)O[Si](C)(C)O1	176 °C	0.0212	17.5 °C	–	1.08	–	–	–
COC(=O)c1sccc1N	–	–	65 °C	–	–	–	–	–
Cc1cc2c(cc1S(N)(=O)=O)S(=O)(=O)CCC2	–	–	236 °C	–	–	–	–	–
CCCCCC(=O)CC(C)=O	–	–	-18 °C	–	–	–	–	–
CC[C@H]1C[C@@H]2C[C@H]3c4[nH]c5cc(OC)ccc5c4CC[N@@](C2)[C@@H]13	–	–	214 °C	–	–	–	–	–
CCc1ccc(Cc2ccccc2)cc1	297 °C	–	-24 °C	–	–	–	–	–
CN(C)CCC(O)(c1ccccc1)c1ccccc1Cl (stereo unspecified)	–	–	120 °C	–	–	–	–	–
CCOC(=O)C1=C(C)NC(C)=C(C(=O)OCC)C1	–	–	180 °C	–	–	–	–	–
OC(O)C(Cl)(Cl)Cl	98 °C	1.18	57 °C	–	–	–	–	–
Oc1c(Br)cccc1Br	255 °C	–	56.5 °C	–	–	–	–	–
C=C(C)c1ccc(C(=C)C)cc1	–	–	63.5 °C	–	–	–	–	–
CC1CN(C2CCCCCCCCCCC2)CC(C)O1 (stereo unspecified)	–	-5.44	71 °C	–	–	–	–	–
COc1ccc(N=[N+]([O-])c2ccc(OC)cc2)cc1	–	–	127 °C	–	–	–	–	–
O=C(Nc1ccccc1)c1ccccc1O	–	–	136 °C	–	–	–	–	–
CCCOC(=O)c1ccc(O)cc1	–	–	97 °C	–	–	–	–	–

SMILES	boiling point	log10 vapour pressure (mmHg)	melting point	ready biodegradability	log10 Henry constant (atm·m³/mol)	log10 Koa	log10 biodegradation half-life (days)	log10 Koc (L/kg)
O=[N+]([O-])c1ccc(O)cc1	279 °C	-4.01	114 °C	not readily biodegradable	-9.38	–	–	2.37
COc1cccc(C(=O)O)c1	–	–	107 °C	readily biodegradable	–	–	–	–
CCCCCN	104 °C	1.48	-55 °C	readily biodegradable	-4.61	–	–	–
NCc1cccnc1	226 °C	–	-21.1 °C	–	–	–	–	–
CC(C)N1C(=O)N(c2ccccc2)CSC1=NC(C)(C)C	–	-5.03	105 °C	–	–	–	–	–
c1ccc2c(c1)cc1ccc3cccc4ccc2c1c34	495 °C	-8.26	176 °C	–	-6.34	–	2.35	5.95
CCOC(=O)Nc1ccc(NCc2ccc(F)cc2)nc1N	–	–	116 °C	–	–	–	–	–
C[C@]12C[C@@H](O)[C@H]3[C@@H](CC[C@]4(O)C[C@@H](O)C[C@@H](O)[C@]34CO)[C@@]1(O)CC[C@@H]2C1=CC(=O)OC1	–	–	236 °C	–	–	–	–	–
CCc1cnccc1C	198 °C	–	–	–	–	–	–	–
COc1ccccc1I	241 °C	–	–	–	–	–	–	–
O=[N+]([O-])c1c(O)cccc1O	–	–	82 °C	readily biodegradable	–	–	–	–
CN1CCC(OC(c2ccccc2)c2ccccc2)CC1.Cl	–	–	204 °C	–	–	–	–	–
CCOP(=O)(NC(C)C)Oc1ccc(SC)c(C)c1 (stereo unspecified)	–	-6	49 °C	–	–	–	–	2.51
CNc1ccc(C(=O)O)cc1	–	–	–	not readily biodegradable	–	–	–	–
O=C(O)c1c(F)cc(F)cc1F	–	–	143 °C	–	–	–	–	–
C#C[C@]1(O)CC[C@H]2[C@@H]3CCC4=CC(=O)CC[C@]4(C)[C@H]3CC[C@@]21C	–	–	272 °C	–	–	–	–	–
CCOC(=O)Nc1ccccc1	238 °C	–	53 °C	–	–	–	–	1.82
O=C(c1ccccc1O)c1ccccc1O	333 °C	–	59.5 °C	–	–	–	–	–
CCCCCCCCCCCCCCCCCC(=O)NCO	–	–	–	readily biodegradable	–	–	–	–
O=C(O)CCCCCCCCCCCCCCC(=O)O	–	–	–	readily biodegradable	–	–	–	–
CCOC(=O)n1ccn(C)c1=S	–	–	124 °C	–	–	–	–	–
ClC1C(Br)C(Br)C(Br)C(Br)C1Br (stereo unspecified)	–	–	–	not readily biodegradable	–	–	–	–
C[C@H]1[C@H](C)CC[C@]2(C(=O)O)CC[C@]3(C)C(=CC[C@@H]4[C@@]5(C)CC[C@H](O)C(C)(C)[C@@H]5CC[C@]43C)[C@H]12	–	–	284 °C	–	–	–	–	–
CC(C)(C)O	82.4 °C	1.61	25.4 °C	not readily biodegradable	-5.04	3.5	–	–
C[Si]1(C)O[Si](C)(C)O[Si](C)(C)O[Si](C)(C)O[Si](C)(C)O[Si](C)(C)O1	245 °C	-1.65	-3 °C	–	–	–	–	–
O=C1CCCCC1C1=CCCCC1 (stereo unspecified)	265 °C	–	-78 °C	not readily biodegradable	–	–	–	–

SMILES	boiling point	log10 vapour pressure (mmHg)	melting point	ready biodegradability	log10 Henry constant (atm·m³/mol)	log10 Koa	log10 biodegradation half-life (days)	log10 Koc (L/kg)
Clc1ccc(Cl)c(-c2cc(Cl)c(Cl)cc2Cl)c1	–	-4.6	–	–	-4.05	9.06	–	5.22
CCCC(Cl)CC (stereo unspecified)	123 °C	–	–	–	–	–	–	–
C[Si](C)(C)Cl	60 °C	2.37	-40 °C	–	–	–	–	–
O=[N+]([O-])c1c(F)cc(F)cc1F	184 °C	–	3.5 °C	–	–	–	–	–
CCCCCCl	108 °C	1.52	-99 °C	–	-1.62	–	–	–
CN1CCN(C)C1=O	221 °C	–	8.2 °C	–	–	–	–	–
CCOC(OCC)OCC	143 °C	0.587	–	–	–	–	–	–
C=CCNCCC	112 °C	–	–	–	–	–	–	–
C=C(Cl)C(C)Cl (stereo unspecified)	112 °C	–	–	–	–	–	–	–
FC(F)(F)C(F)(F)C(F)(F)C(F)(F)C(F)(F)C(F)(F)C(F)(F)C(F)(F)C(F)(F)F	123 °C	–	-16 °C	–	–	–	–	–
C[C@@H](O)C(C)(C)O	175 °C	–	–	–	–	–	–	–
O=[N+]([O-])c1ccc(CCl)cc1	–	–	71 °C	not readily biodegradable	–	–	–	–
NCc1cccc(CN)c1	247 °C	–	–	not readily biodegradable	–	–	–	–
O=S(=O)(F)Cc1ccccc1	–	–	93 °C	–	–	–	–	–
Nc1ccn([C@H]2CC[C@@H](CO)O2)c(=O)n1	–	–	218 °C	–	–	–	–	–
CCCCC(C)CC (stereo unspecified)	118 °C	1.29	-100 °C	–	–	–	0.477	–
CCC(C)OC(=O)CC(C)=O (stereo unspecified)	–	–	–	readily biodegradable	–	–	–	–
CN(C)c1ccccc1N	218 °C	–	–	–	–	–	–	–
Cc1cnc2ccccc2c1	260 °C	–	16.5 °C	–	–	–	–	–
CC(C)C1=CC2=C(CC1)[C@@]1(C)CCC[C@@](C)(C(=O)O)[C@@H]1CC2	–	–	164 °C	–	–	–	–	–
CCCCC(CC)COP(=O)(OCC(CC)CCCC)OCC(CC)CCCC (stereo unspecified)	–	-7.08	-74 °C	not readily biodegradable	–	–	–	–
BrCCc1ccccc1	219 °C	-0.612	-65.7 °C	–	–	–	–	–
CC(C)(C)C=O	77.5 °C	–	6 °C	readily biodegradable	–	–	–	–
CCCc1ccncc1	185 °C	–	–	–	–	–	–	–
O=c1[nH]c2ccccc2n1C1CCN(CCCC(c2ccc(F)cc2)c2ccc(F)cc2)CC1	–	–	216 °C	–	–	–	–	–

Same assay, conditions: fish

SMILES	log10 BCF	log10 biotransformation half-life (days)
C1CCCCC1	1.92	-0.66
O=C(O)c1c(Cl)cccc1Cl	0.26	–
C[Si]1(C)O[Si](C)(C)O[Si](C)(C)O[Si](C)(C)O1	–	1.88
O=[N+]([O-])c1ccc(O)cc1	0.71	–
c1ccc2c(c1)cc1ccc3cccc4ccc2c1c34	–	0.05
CNc1ccc(C(=O)O)cc1	0.38	–
Clc1cc2ccccc2c2ccccc12	3.49	1.8
ClC(Cl)=C(Cl)c1c(Cl)c(Cl)c(Cl)c(Cl)c1Cl	3.91	2.04
ClC1C(Br)C(Br)C(Br)C(Br)C1Br (stereo unspecified)	2.41	-0.31
CC(C)(C)O	0.7	-1.13
C[Si]1(C)O[Si](C)(C)O[Si](C)(C)O[Si](C)(C)O[Si](C)(C)O[Si](C)(C)O1	–	2.34
O=C1CCCCC1C1=CCCCC1 (stereo unspecified)	0.7	–
Clc1ccc(Cl)c(-c2cc(Cl)c(Cl)cc2Cl)c1	5.47	2.46
NCc1cccc(CN)c1	0.43	–
CC(C)C1=CC2=C(CC1)[C@@]1(C)CCC[C@@](C)(C(=O)O)[C@@H]1CC2	1.4	–
CCCCC(CC)COP(=O)(OCC(CC)CCCC)OCC(CC)CCCC (stereo unspecified)	1.7	-0.29
